From the supplement of paper PMC8671470

What was measured:
Settings in all cases: 72 h
MV4-11 = tested on: MV4-11
Procedure, shortened: (§1)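 In 384-well plates holding acoustically pre-printed compounds at five tenfold doses from 1 to 10,000 nM, in duplicate, fifteen myeloid leukaemia cell lines were grown in RPMI 1640 for 72 h at 37 °C with 5% CO2. Luminescent ATP viability was scaled between vehicle and a positive control at 10 µM. The IC50 was then taken from log-logistic dose–response fits with four parameters.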

K-562 = tested on: K-562
Procedure, shortened: as §1

SHI-1 = tested on: SHI-1
Procedure, shortened: as §1

NOMO-1 = tested on: NOMO-1
Procedure, shortened: as §1

Mono-Mac-6 = tested on: Mono-Mac-6
Procedure, shortened: as §1

HL-60 = tested on: HL-60
Procedure, shortened: as §1

KU-812 = tested on: KU-812
Procedure, shortened: as §1

HEL = tested on: HEL
Procedure, shortened: as §1

ML-2 = tested on: ML-2
Procedure, shortened: as §1

BV-173 = tested on: BV-173
Procedure, shortened: as §1

MOLM-13 = tested on: MOLM-13
Procedure, shortened: as §1

THP-1 = tested on: THP-1
Procedure, shortened: as §1

KG-1 = tested on: KG-1
Procedure, shortened: as §1

LAMA-84 = tested on: LAMA-84
Procedure, shortened: as §1

| Structure (SMILES) | IC50 (cell viability) (MV4-11) | IC50 (cell viability) (K-562) | IC50 (cell viability) (SHI-1) | IC50 (cell viability) (NOMO-1) | IC50 (cell viability) (Mono-Mac-6) | IC50 (cell viability) (HL-60) | IC50 (cell viability) (KU-812) | IC50 (cell viability) (HEL) | IC50 (cell viability) (ML-2) | IC50 (cell viability) (BV-173) | IC50 (cell viability) (MOLM-13) | IC50 (cell viability) (THP-1) | IC50 (cell viability) (KG-1) | IC50 (cell viability) (LAMA-84) |
| --- | --- | --- | --- | --- | --- | --- | --- | --- | --- | --- | --- | --- | --- | --- |
| NC(CCC(=O)NC(CSCc1ccc(Br)cc1)C(=O)NCC(=O)OC1CCCC1)C(=O)OC1CCCC1 (stereo unspecified) [S-para-Bromobenzylglutathione cyclopentyl diester] | > 10 µM | > 10 µM | > 10 µM | > 10 µM | > 10 µM | > 10 µM | > 10 µM | > 10 µM | 3.95 µM | 2.32 µM | > 10 µM | > 10 µM | > 10 µM | > 10 µM |
| NCc1ccc(S(N)(=O)=O)cc1 [4-Homosulfanilamide] | > 10 µM | > 10 µM | > 10 µM | > 10 µM | > 10 µM | > 10 µM | > 10 µM | > 10 µM | > 10 µM | > 10 µM | > 10 µM | > 10 µM | > 10 µM | > 10 µM |
| Cl.NC1=CCCN1Cc1nc(O)nc(O)c1Cl [Tipiracil] | > 10 µM | > 10 µM | > 10 µM | > 10 µM | > 10 µM | > 10 µM | > 10 µM | > 10 µM | > 10 µM | > 10 µM | > 10 µM | > 10 µM | > 10 µM | > 10 µM |
| O=NN(CCCl)C(=O)NCCCl [Carmustine] | > 10 µM | > 10 µM | > 10 µM | > 10 µM | > 10 µM | > 10 µM | > 10 µM | > 10 µM | > 10 µM | > 10 µM | > 10 µM | > 10 µM | > 10 µM | > 10 µM |
| O=c1oc2c(cc1O)oc(=O)c1cc(O)c(O)c(O)c12 [Galloflavin] | > 10 µM | > 10 µM | > 10 µM | > 10 µM | > 10 µM | > 10 µM | > 10 µM | > 10 µM | > 10 µM | > 10 µM | > 10 µM | > 10 µM | > 10 µM | > 10 µM |
| OC[C@H]1N[C@@H](c2c[nH]c3c(O)ncnc23)[C@H](O)[C@@H]1O [Forodesine] | > 10 µM | > 10 µM | > 10 µM | > 10 µM | > 10 µM | > 10 µM | > 10 µM | > 10 µM | > 10 µM | > 10 µM | > 10 µM | > 10 µM | > 10 µM | > 10 µM |
| OCC(CO)N[C@H]1C[C@](O)(CO)[C@@H](O)[C@H](O)[C@H]1O [Voglibose] | 6.47 µM | > 10 µM | > 10 µM | > 10 µM | > 10 µM | > 10 µM | > 10 µM | > 10 µM | > 10 µM | > 10 µM | > 10 µM | > 10 µM | > 10 µM | > 10 µM |
| N#Cc1ccc(C2CCCc3cncn32)cc1 (stereo unspecified) [Fadrozole] | > 10 µM | > 10 µM | > 10 µM | > 10 µM | > 10 µM | > 10 µM | > 10 µM | > 10 µM | > 10 µM | > 10 µM | > 10 µM | > 10 µM | > 10 µM | > 10 µM |
| N[C@@H](CCC(=O)N[C@@H](CS)C(=O)NCC(=O)O)C(=O)O [Glutathione] | > 10 µM | > 10 µM | > 10 µM | > 10 µM | > 10 µM | > 10 µM | > 10 µM | > 10 µM | > 10 µM | > 10 µM | > 10 µM | > 10 µM | > 10 µM | > 10 µM |
